Measurements from paper PMC11954145, “Antimicrobial and ADME properties of methoxylated, methylated and nitrated 2-hydroxynaphthalene-1 carboxanilides” (ADMET & DMPK, 2025).
≈ marks a conversion by molar mass, not a printed value.

Assays:
[1] = Lipophilicity determination by RP-HPLC (log k, log D); type: physicochemical; conditions: for log D6.5: RP-HPLC C18, MeOH 72 % / acetate-buffered saline pH 6.5; for log D7.4: RP-HPLC C18, MeOH 72 % / acetate-buffered saline pH 7.4; for log k (logarithm of the capacity factor): RP-HPLC C18, MeOH 72 % / water 28 %
Excerpt: An HPLC system Agilent 1200 equipped with a DAD detector (Agilent, Santa Clara, CA, USA) was used. A chromatographic column Symmetry® C18 5 μm, 4.6×250 mm, part No. WAT054275 (Waters Corp., Milford, MA, USA) was used. The HPLC separation process was monitored and evaluated with EZChrom Elite software ver. 3.3.2 (Agilent). Isocratic elution by a mixture of MeOH p.a. (72 %) and H2O-HPLC Mili-Q grade (28 %) as a mobile phase was used for the determination of capacity factor k. Isocratic elution by a mixture of MeOH p.a. (72 %) and acetate-buffered saline (pH 7.4 and pH 6.5) (28 %) as a mobile phase was used for the determination of distribution coefficients expressed as D7.4 and D6.5. The total flow of the column was 1.0 mL min^-1, the injection volume was 20 μL, the column temperature was 40 °C, and the sample temperature was 10 °C. The detection wavelength of 210 nm was chosen. A KI methanolic solution was used to determine the dead times (tD). Retention times (tR) were measured in minutes. The capacity factors k were calculated according to the formula k = (tR–tD)/tD, where tR is the retention time of the solute, and tD is the dead time obtained using an unretained analyte. The distribution coefficients DpH were calculated according to the formula DpH = (tR–tD)/tD. Each experiment was repeated three times.
The capacity factor and distribution coefficients were measured by RP-HPLC on a C18 column with methanol as an organic modifier of the mobile phase. In addition to the experimental lipophilicities, predicted log P values were also calculated using ACD/Percepta, see Table 1. […] The values of σ(Ar) are found in a wide range from 0.01 to 1.36, so the compounds contain substituents with both electron-donating and slightly electron-withdrawing properties.

[2] = test system: S. aureus ATCC 29213; assay: Antibacterial screening, broth microdilution MIC; type: cell-based; conditions: Staphylococcus aureus, ATCC29213; ATCC 29213, 24 h at 37 °C; read-out: MIC S. aureus
[3] = test system: MRSA 63718; assay: Antibacterial screening, broth microdilution MIC; type: cell-based, methicillin-resistant S. aureus; conditions: Staphylococcus aureus, clinical isolate, 24 h at 37 °C, read-out: MIC MRSA 63718
[4] = test system: MRSA SA 630; assay: Antibacterial screening, broth microdilution MIC; type: cell-based, methicillin-resistant S. aureus; conditions: Staphylococcus aureus, clinical isolate, 24 h at 37 °C, read-out: MIC MRSA SA 630
[5] = test system: MRSA SA 3202; assay: Antibacterial screening, broth microdilution MIC; type: cell-based, methicillin-resistant S. aureus; conditions: Staphylococcus aureus, clinical isolate, 24 h at 37 °C, read-out: MIC MRSA SA 3202
[6] = test system: Enterococcus faecalis ATCC 29212; assay: Antibacterial screening, broth microdilution MIC; type: cell-based; conditions: ATCC29212, ATCC 29212, 24 h at 37 °C, read-out: MIC E. faecalis
[7] = test system: VRE 342B; assay: Antibacterial screening, broth microdilution MIC; type: cell-based, vancomycin-resistant E. faecalis; conditions: Enterococcus, vanA isolate, 24 h at 37 °C, read-out: MIC VRE 342B
[8] = test system: VRE 725B; assay: Antibacterial screening, broth microdilution MIC; type: cell-based, vancomycin-resistant E. faecalis; conditions: Enterococcus, vanA isolate, 24 h at 37 °C, read-out: MIC VRE 725B
[9] = test system: VRE 368; assay: Antibacterial screening, broth microdilution MIC; type: cell-based, vancomycin-resistant E. faecalis; conditions: Enterococcus, vanA isolate, 24 h at 37 °C, read-out: MIC VRE 368
[10] = test system: E. coli ATCC 25922; assay: Antibacterial screening, broth microdilution MIC; type: cell-based; conditions: Escherichia coli, ATCC25922; ATCC 25922, 24 h at 37 °C
[11] = test system: Mycobacterium tuberculosis ATCC 25177/H37Ra; assay: Antimycobacterial screening, broth dilution MIC (Alamar blue); type: cell-based; conditions: 336 h, H37Ra, 14 days at 37 °C, Alamar blue, read-out: MIC M. tuberculosis
Protocol: The evaluation of in vitro antimycobacterial activity of the compounds was performed against Mycobacterium tuberculosis ATCC 25177/H37Ra, Mycobacterium kansasii DSM 44162 and Mycobacterium smegmatis ATCC 700084.
The broth dilution micro-method in Middlebrook 7H9 medium (Difco, Lawrence, KS, USA) supplemented with ADC Enrichment (Difco) was used to determine the minimum inhibitory concentration (MIC) as previously described. […] The final concentrations of the evaluated compounds, ranging from 256 to 0.125 μg mL^-1, were obtained by twofold serial dilution of the stock solution in a microtiter plate with a sterile medium. Bacterial inocula were prepared by transferring colonies from culture to sterile water. The plate was inoculated by tested microorganisms. The final concentration of bacterial cells was 1.5×10^6 for M. tuberculosis and 10^5 cells in a microtiter plate for other mycobacteria. Isoniazid and rifampicin (Sigma) were used as reference antimycobacterial drugs. Drug-free controls, sterility controls, and controls consisting of medium and DMSO alone were included. The plates were incubated for a defined time at an appropriate temperature (3 days at 37 °C for M. smegmatis, and 14 days at 37 °C for M. tuberculosis and M. kansasii). […] The MICs against M. tuberculosis were evaluated by Alamar blue (Oxoid). After incubation, 10 % of Alamar blue was added to each well, and the plate was incubated for 24 h. The MIC values were assessed as the lowest concentration of the tested compounds, which prevented changing blue resazurin to pink resorufin. The experiments were repeated three times. The minimum inhibitory concentrations (MICs) were defined as the lowest concentration of the compound at which no visible bacterial growth was observed. The MIC value is routinely and widely used in bacterial assays and is a standard detection limit according to the CLSI [60].

[12] = test system: Mycobacterium kansasii DSM 44162; assay: Antimycobacterial screening, broth dilution MIC; type: cell-based; conditions: DSM44162, 336 h, DSM 44162, 14 days at 37 °C, read-out: MIC M. kansasii
[13] = test system: Mycobacterium smegmatis ATCC 700084; assay: Antimycobacterial screening, broth dilution MIC; type: cell-based; conditions: Mycolicibacterium smegmatis, ATCC700084, 72 h; ATCC 700084, 3 days at 37 °C; read-out: MIC M. smegmatis

Row | SMILES | log D6.5 [1] | log D7.4 [1] | log k (logarithm of the capacity factor) [1] | MIC [2] | MIC [3] | MIC [4] | MIC [5] | MIC [6] | MIC [7] | MIC [8] | MIC [9] | MIC [10] | MIC [11] | MIC [12] | MIC [13]
1 | Cc1ccccc1NC(=O)c1c(O)ccc2ccccc12 [Compound 8, 2-hydroxy-N-(2-methylphenyl)naphthalene-1-carboxamide] | 0.0745 | 0.0838 | 0.0858 | 462 µM (≈ 128 µg/mL) | 462 µM (≈ 128 µg/mL) | 462 µM (≈ 128 µg/mL) | 462 µM (≈ 128 µg/mL) | 462 µM (≈ 128 µg/mL) | 462 µM (≈ 128 µg/mL) | 462 µM (≈ 128 µg/mL) | 462 µM (≈ 128 µg/mL) | 462 µM (≈ 128 µg/mL) | 231 µM (≈ 64.1 µg/mL) | 115 µM (≈ 31.9 µg/mL) | 462 µM (≈ 128 µg/mL)
2 | Cc1cccc(NC(=O)c2c(O)ccc3ccccc23)c1 [Compound 9, 2-hydroxy-N-(3--methylphenyl)naphthalene-1-carboxamide] | 0.1644 | 0.1727 | 0.1762 | – | 462 µM (≈ 128 µg/mL) | – | – | 462 µM (≈ 128 µg/mL) | 462 µM (≈ 128 µg/mL) | 462 µM (≈ 128 µg/mL) | 462 µM (≈ 128 µg/mL) | 462 µM (≈ 128 µg/mL) | 231 µM (≈ 64.1 µg/mL) | 115 µM (≈ 31.9 µg/mL) | –
3 | Cc1ccc(NC(=O)c2c(O)ccc3ccccc23)cc1 [Compound 10, 2-hydroxy-N-(4-methylphenyl)naphthalene-1-carboxamide] | 0.1553 | 0.1632 | 0.1658 | – | 462 µM (≈ 128 µg/mL) | 462 µM (≈ 128 µg/mL) | 462 µM (≈ 128 µg/mL) | 462 µM (≈ 128 µg/mL) | 462 µM (≈ 128 µg/mL) | 462 µM (≈ 128 µg/mL) | 462 µM (≈ 128 µg/mL) | 462 µM (≈ 128 µg/mL) | 231 µM (≈ 64.1 µg/mL) | 115 µM (≈ 31.9 µg/mL) | > 923 µM
4 | Cc1ccc(C)c(NC(=O)c2c(O)ccc3ccccc23)c1 [Compound 11, N-(2,5-Dimethylphenyl)-2-hydroxynaphthalene-1-carboxamide] | 0.2455 | 0.2514 | 0.2486 | 110 µM (≈ 32 µg/mL) | 110 µM (≈ 32 µg/mL) | 110 µM (≈ 32 µg/mL) | 110 µM (≈ 32 µg/mL) | 879 µM (≈ 256 µg/mL) | 879 µM (≈ 256 µg/mL) | 879 µM (≈ 256 µg/mL) | 879 µM (≈ 256 µg/mL) | 879 µM (≈ 256 µg/mL) | 439 µM (≈ 128 µg/mL) | 110 µM (≈ 32 µg/mL) | 220 µM (≈ 64.1 µg/mL)
5 | NNC(=O)c1ccncc1 [INH, isoniazid, reference compound] | – | – | – | – | – | – | – | – | – | – | – | – | 36.5 µM (≈ 5.01 µg/mL) | 233 µM (≈ 32 µg/mL) | 117 µM (≈ 16 µg/mL)
6 | CO[C@H]1/C=C/O[C@@]2(C)Oc3c(C)c(O)c4c(O)c(c(/C=N/N5CCN(C)CC5)c(O)c4c3C2=O)NC(=O)/C(C)=C\C=C\[C@H](C)[C@H](O)[C@@H](C)[C@@H](O)[C@@H](C)[C@H](OC(C)=O)[C@@H]1C [RIF, rifampicin, reference compound] | – | – | – | – | – | – | – | – | – | – | – | – | 9.71 µM (≈ 7.99 µg/mL) | 0.15 µM (≈ 0.123 µg/mL) | 19.4 µM (≈ 16 µg/mL)
